Measurements from US5856503A, “Aminoalkyl-substituted benzo-heterocyclic compounds” (Hoffmann-La Roche Inc., priority 1995, dated 1999).
In brackets after ≈: the same amount, converted by molar mass. Read-outs that look alike come from different tables or passages of the source.

Assays:
[1] = molecular target: T1, human liver microsomal 2,3-oxidosqualene-lanosterol cyclase (OSC) (Homo sapiens, UniProt P48449); assay: Inhibition of human liver microsomal 2,3-oxidosqualene-lanosterol cyclase (OSC); format: biochemical; conditions: for inhibition at 0.1 µM: 100 nM test substance, 1 hour at 37° C., against controls; for IC50: pH 7.4, 1 hour at 37° C., read-out: IC50 (OSC, conversion of MOS into lanosterol)
T1 construct: Liver microsomes from a healthy volunteer were prepared in sodium phosphate buffer (pH 7.4); from tissue; host or cells: liver microsomes from a healthy human volunteer
T1 sequence (P48449 1-732): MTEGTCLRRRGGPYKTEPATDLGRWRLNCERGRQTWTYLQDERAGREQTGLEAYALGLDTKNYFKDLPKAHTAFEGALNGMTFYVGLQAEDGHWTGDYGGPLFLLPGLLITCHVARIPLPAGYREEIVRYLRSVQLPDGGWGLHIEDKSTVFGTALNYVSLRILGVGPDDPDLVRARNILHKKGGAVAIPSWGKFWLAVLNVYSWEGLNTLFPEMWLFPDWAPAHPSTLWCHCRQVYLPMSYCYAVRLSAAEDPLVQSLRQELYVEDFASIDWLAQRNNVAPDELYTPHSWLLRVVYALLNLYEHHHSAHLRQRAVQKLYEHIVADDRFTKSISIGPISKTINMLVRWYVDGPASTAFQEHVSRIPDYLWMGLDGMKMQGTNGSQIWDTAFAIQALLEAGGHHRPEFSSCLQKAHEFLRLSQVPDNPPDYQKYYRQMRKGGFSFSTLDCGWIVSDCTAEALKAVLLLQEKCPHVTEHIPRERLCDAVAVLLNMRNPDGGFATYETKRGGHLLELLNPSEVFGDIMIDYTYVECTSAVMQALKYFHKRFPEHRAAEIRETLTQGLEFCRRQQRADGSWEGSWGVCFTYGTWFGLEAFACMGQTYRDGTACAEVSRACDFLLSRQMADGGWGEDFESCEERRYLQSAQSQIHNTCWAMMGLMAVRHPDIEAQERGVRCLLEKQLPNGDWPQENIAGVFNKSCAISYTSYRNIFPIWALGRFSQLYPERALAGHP
Method: Inhibition of human liver microsomal 2,3-oxidosqualene-lanosterol cyclase (OSC)
Liver microsomes from a healthy volunteer were prepared in sodium phosphate buffer (pH 7.4). The OSC activity was measured in the same buffer which also contained 1 mM EDTA and 1 mM dithiothreitol. The microsomes were diluted to 0.8 mg/ml protein in cold phosphate buffer. Dry [^14 C]R,S-monooxidosqualene (MOS; 12.8 μCi/mmol) was diluted to 20 nCi/μl with ethanol and mixed with phosphate buffer-1% BSA (Bovine Serum Albumin). A stock solution of 1 mM test substance in DMSO was diluted to the desired concentration with phosphate buffer-1% BSA. 40 μl of microsomes were mixed with 20 μl of the solution of the test substance and the reaction was subsequently started with 20 μl of the [^14 C]R,S-MOS solution. The final conditions were: 0.4 mg/ml of microsomal proteins and […] of [^14 C]R,S-MOS in phosphate buffer, pH 7.4, containing 0.5% albumin, DMSO <0.1% and ethanol <2%, in a total volume of 80 μl.
After 1 hour at 37° C. the reaction was stopped by the addition of 0.6 ml of 10% KOH-methanol, 0.7 ml of water and 0.1 ml of hexane:ether (1:1, v/v) which contained 25 μg of non-radioactive MOS and 25 μg of lanosterol as the carrier. After shaking 1 ml of hexane:ether (1:1, v/v) was added to each test tube, these were again shaken and then centrifuged. The upper phase was transferred into a glass test tube, the lower phase was again extracted with hexane:ether and combined with the first extract. The entire extract was evaporated to dryness with nitrogen, the residue was suspended in 50 μl of hexane:ether and applied to a silica gel plate. Chromatographic separation was effected in hexane:ether (1:1, v/v) as the eluent. […] After drying radioactive MOS and lanosterol were observed on the silica gel plate. The ratio of MOS to lanosterol was determined from the radioactive bands in order to determine the OSC inhibition.
The test was carried out on the one hand with a constant test substance concentration of 100 nM and the percentage OSC inhibition against controls was calculated. In addition, the test was carried out with different test substance concentrations and subsequently the IC50 value was calculated, i.e. the concentration required to reduce the conversion of MOS into lanosterol to 50% of the control value.

[2] = Cholesterol lowering in fat-fed hamsters; format: in vivo, Male golden hamsters; conditions: 200 μmol (about 70-120 mg/kg/day) in diet, 10 days
Method: Cholesterol lowering in fat-fed hamsters
Male golden hamsters kept individually were pre-treated for 7 days with a diet containing grated coconut (40 cal. % fat). The animals were then divided into groups each comprising 5 animals. During the treatment the animals were maintained on the same diet. Each test substance was firstly homogenized in 9 ml of water and subsequently mixed with the milled diet. The controls received only feed converted into a paste with water. The animals were treated for 10 days with a test substance dosage of 200 μmol (about 70-120 mg/kg/day). Blood samples (200 μl) were removed via the jugular vein under light anaesthesia on the last day of the pretreatment and one day after the last administration of test substance. The plasma cholesterol concentration was determined using a colorimetric enzyme method. The plasma lipoproteins were separated by exclusion chromatography (Hennes et al., Science Tools, 36, 1992, 10-12). The total cholesterol was determined in each fraction using a fluorometric enzyme method (Gamble et al., J. Lipid Res., 19, 1978, 1068-1071) in order to calculate the amount of cholesterol in the LDL and HDL fractions. The activity on plasma cholesterol and LDL and HDL cholesterol, expressed in percent of the control animals, for the products of Examples 8a and 12 is reproduced in the following Table: […]

[3] = tested on: Candida albicans; assay: Antifungal activity in vitro, C. albicans (microdilution); format: cell-based; conditions: 27° C.
Method: (§1) Antifungal activity in vitro The compounds were tested for antifungal activity against Candida albicans, Cryptococcus neoformans and Aspergillus fumigatus using a microdilution method on microtitre plates (96 wells per plate). Yeast supplemented with 1% glucose and 0.25% di-potassium phosphate was used for the three fungal strains. The fungal cells were inoculated at 3×10^4 CFU (Colony Forming Unit) in […] of medium per well. The medium contained increasing concentrations of test substance. After incubation at 27° C. for 24 or 48 hours the turbidity in each well was measured by a microtitre plate reader. The growth inhibition was calculated in comparison to (without test substance). The IC50 value given in the following Table is the concentration of test substance at which the growth is inhibited by 50%.

[4] = tested on: Cryptococcus neoformans; assay: Antifungal activity in vitro, C. neoformans (microdilution); format: cell-based; conditions: 48 hours, 27° C., read-out: IC50 for C. neoformans after 48 hours (growth inhibition)
Method: as §1

[5] = tested on: Aspergillus fumigatus; assay: Antifungal activity in vitro, A. fumigatus (microdilution); format: cell-based; conditions: 48 hours, 27° C., read-out: IC50 for A. fumigatus after 48 hours (growth inhibition)
Method: as §1

[6] = 24 hrs., read-out: IC50 for C. albicans after 24 hrs. (growth inhibition)
[7] = 48 hrs., read-out: IC50 for C. albicans after 48 hrs. (growth inhibition)

Row | inhibition at 0.1 µM [1] [%] | IC50 [1] [nM] | IC50 [3, 6] [µg/mL] | IC50 [3, 7] [µg/mL] | IC50 [4] [µg/mL] | IC50 [5] [µg/mL] | SMILES | HDL cholesterol (plasma, percent of control animals) [2] [%] | LDL cholesterol (plasma, percent of control animals) [2] [%] | Total cholesterol (plasma, percent of control animals) [2] [%]
1 | 96 | 3.3 | < 0.32 | 3.6 (≈ 7.84 µM) | < 0.32 | 3.9 (≈ 8.49 µM) | C=CCN(C)CCCCCCOc1ccc2c(-c3ccc(Br)cc3)nsc2c1 [Example 1, allyl-[6-[3-(4-bromo-phenyl)-benzo[d]isothiazol-6-yloxy]-hexyl]-methyl-amine] | -27 | -36 | -33
2 | 98 | 1.6 | < 0.32 | 1.4 (≈ 3.09 µM) | < 0.32 | 1.9 (≈ 4.19 µM) | CN(CCCCCCOc1ccc2c(-c3ccc(Br)cc3)nccc2c1)C1CC1 [Example 24, [6-[1-(4-bromo-phenyl)-isoquinolin-6-yloxy]-hexyl]-cyclopropyl-methyl-amine] |  |  | 
